The values that follow are results of earlier work, collected in patent US11324821B2, “Triterpene saponin analogues” (ADJUVANCE TECHNOLOGIES, INC., priority 2017, dated 2022).

The conditions of this series: cited from earlier work.

Turning to QS-21, where the note is “cancer patients, above it local erythema and systemic flu-like symptoms”, the “tolerated / maximum dose” value is 100 to 150 µg. Besides, the maximum dose (in vivo) was 50 µg.
